# Calls of active or inactive are those of the source. No cut-off for these calls is given here.
# How the values were obtained:
# [1] = Inhibition of PI3K/AKT/mTOR signalling pathway in human RV-1 cells assessed as decrease in PRAS40 phosphorylation at T246 residue at 2.5 uM incubated for 4 hrs by immunoblot analysis; type: cell-based
# [2] = target: Focal adhesion kinase 1 (Homo sapiens) (UniProt Q05397); assay: Inhibition of FAK (unknown origin) assessed as remaining activity at 1 uM by Kinome scan method relative to control
# VCaP = assay: Antiproliferative activity against human VCaP cells assessed growth inhibition incubated for 2 to 5 days by CellTiter-Glo assay; type: functional; conditions: time 2-5 day
# [3] = target: Aurora kinase A (Homo sapiens) (UniProt O14965); assay: Inhibition of AURKA (unknown origin) assessed as remaining activity at 1 uM by Kinome scan method relative to control
# Chain of Aurora kinase A (Homo sapiens) (O14965 whole entry): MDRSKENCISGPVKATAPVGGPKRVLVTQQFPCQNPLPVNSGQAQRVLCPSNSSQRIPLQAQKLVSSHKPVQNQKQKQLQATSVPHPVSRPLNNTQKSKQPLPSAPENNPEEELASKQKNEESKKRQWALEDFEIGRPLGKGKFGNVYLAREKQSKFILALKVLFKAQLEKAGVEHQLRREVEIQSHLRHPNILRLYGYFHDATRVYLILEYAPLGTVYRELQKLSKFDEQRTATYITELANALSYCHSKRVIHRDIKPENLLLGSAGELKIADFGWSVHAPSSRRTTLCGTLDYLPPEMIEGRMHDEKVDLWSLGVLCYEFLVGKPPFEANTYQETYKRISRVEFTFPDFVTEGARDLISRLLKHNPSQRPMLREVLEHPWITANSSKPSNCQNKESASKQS
# [4] = target: Mitogen-activated protein kinase kinase kinase 12 (Homo sapiens) (UniProt Q12852); assay: Inhibition of DLK (unknown origin) assessed as remaining activity at 1 uM by Kinome scan method relative to control
# [5] = Induction of cell cycle arrest in human RV-1 cells assessed as accumulation of cells at G2/M phase at 2.5 uM incubated for 5 days by propidium iodide staining based flow cytometric analysis (reference value: 11.4 %); type: functional; conditions: time 5 day
# [6] = target: Ribosomal protein S6 kinase alpha-1 (Homo sapiens) (UniProt Q15418); assay: Inhibition of N-terminal kinase domain RSK1 (unknown origin) assessed as remaining activity at 1 uM by Kinome scan method relative to control
# Chain of Ribosomal protein S6 kinase alpha-1 (Homo sapiens) (Q15418 whole entry, the tested form may be a part): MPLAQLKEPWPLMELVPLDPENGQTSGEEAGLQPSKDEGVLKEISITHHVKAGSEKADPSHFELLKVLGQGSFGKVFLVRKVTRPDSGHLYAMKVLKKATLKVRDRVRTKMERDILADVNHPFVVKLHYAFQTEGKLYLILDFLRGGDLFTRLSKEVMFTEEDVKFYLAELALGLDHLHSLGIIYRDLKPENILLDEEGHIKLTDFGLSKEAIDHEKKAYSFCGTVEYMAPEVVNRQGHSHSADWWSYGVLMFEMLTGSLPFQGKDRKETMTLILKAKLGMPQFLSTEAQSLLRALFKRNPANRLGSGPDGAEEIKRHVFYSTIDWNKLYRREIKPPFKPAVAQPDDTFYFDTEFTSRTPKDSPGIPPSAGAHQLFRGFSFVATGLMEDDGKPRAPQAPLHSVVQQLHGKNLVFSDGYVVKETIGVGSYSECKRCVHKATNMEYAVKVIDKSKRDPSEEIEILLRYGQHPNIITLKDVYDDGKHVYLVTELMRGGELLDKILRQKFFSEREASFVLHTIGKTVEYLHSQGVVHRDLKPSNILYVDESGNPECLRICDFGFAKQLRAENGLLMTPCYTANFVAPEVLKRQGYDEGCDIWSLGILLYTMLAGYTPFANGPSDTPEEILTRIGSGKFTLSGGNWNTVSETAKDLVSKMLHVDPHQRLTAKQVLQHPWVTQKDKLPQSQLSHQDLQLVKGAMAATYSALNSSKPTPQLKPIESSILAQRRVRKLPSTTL
# [7] = Inhibition of PI3K/AKT/mTOR signalling pathway in human RV-1 cells assessed as decrease in AKT phosphorylation at T308 residue at 2.5 uM incubated for 4 hrs by immunoblot analysis; type: cell-based
# [8] = target: Bone morphogenetic protein receptor type-2 (Homo sapiens) (UniProt Q13873); assay: Inhibition of BMPR2 (unknown origin) assessed as remaining activity at 1 uM by Kinome scan method relative to control
# [9] = target: Ephrin type-A receptor 1 (Homo sapiens) (UniProt P21709); assay: Inhibition of EPHA1 (unknown origin) assessed as remaining activity at 1 uM by Kinome scan method relative to control
# [10] = target: Proto-oncogene tyrosine-protein kinase receptor Ret (Homo sapiens) (UniProt P07949); assay: Inhibition of RET (unknown origin) assessed as remaining activity at 1 uM by Kinome scan method relative to control
# [11] = target: Mitogen-activated protein kinase kinase kinase 11 (Homo sapiens) (UniProt Q16584); assay: Inhibition of MLK3 (unknown origin) assessed as remaining activity at 1 uM by Kinome scan method relative to control
# [12] = target: Tyrosine-protein kinase Fes/Fps (Homo sapiens) (UniProt P07332); assay: Inhibition of FES (unknown origin) assessed as remaining activity at 1 uM by Kinome scan method relative to control
# [13] = Down regulation of BMX protein expression in human RV-1 cells expressing wild type BMX assessed protein expression level at 2.5 uM pre incubated for 4 hrs followed by compound wash out and additon of CHX and measured after 24 hrs by immunoblot analysis (reference value: 0.98 to 1.01); type: functional
# RV-1 = assay: Antiproliferative activity against human RV-1 cells assessed as reduction in cell viability at 500 to 2500 nM incubated for 5 days in presence of Torin1 by CellTiter-Glo assay; type: functional, cell-based; conditions: dose 500-2500 nM, time 5.0 day
# [14] = target: Rho-associated protein kinase 2 (Homo sapiens) (UniProt O75116); assay: Inhibition of ROCK2 (unknown origin) assessed as remaining activity at 1 uM by Kinome scan method relative to control
# [15] = target: Tyrosine-protein kinase JAK1 (Homo sapiens) (UniProt P23458); assay: Inhibition of JAK1 JH1 domain (unknown origin) assessed as remaining activity at 1 uM by Kinome scan method relative to control
# [16] = target: Ribosomal protein S6 kinase alpha-3 (Homo sapiens) (UniProt P51812); assay: Inhibition of N-terminal kinase domain RSK2 (unknown origin) assessed as remaining activity at 1 uM by Kinome scan method relative to control
# [17] = test system: Receptor-type tyrosine-protein kinase FLT3 (Homo sapiens), P36888 [UNDEFINED MUTATION]; assay: Inhibition of FLT3 ITD mutant (unknown origin) assessed as remaining activity at 1 uM by Kinome scan method relative to control
# [18] = target: Ephrin type-B receptor 3 (Homo sapiens) (UniProt P54753); assay: Inhibition of EPHB3 (unknown origin) assessed as remaining activity at 1 uM by Kinome scan method relative to control
# [19] = target: Serine/threonine-protein kinase 3 (Homo sapiens) (UniProt Q13188); assay: Inhibition of MST2 (unknown origin) assessed as remaining activity at 1 uM by Kinome scan method relative to control
# [20] = target: Dual specificity testis-specific protein kinase 1 (Homo sapiens) (UniProt Q15569); assay: Inhibition of TESK1 (unknown origin) assessed as remaining activity at 1 uM by Kinome scan method relative to control
# [21] = target: Serine/threonine-protein kinase BRSK2 (Homo sapiens) (UniProt Q8IWQ3); assay: Inhibition of BRSK2 (unknown origin) assessed as remaining activity at 1 uM by Kinome scan method relative to control
# Chain of Serine/threonine-protein kinase BRSK2 (Homo sapiens) (Q8IWQ3 whole entry, the tested form may be a part): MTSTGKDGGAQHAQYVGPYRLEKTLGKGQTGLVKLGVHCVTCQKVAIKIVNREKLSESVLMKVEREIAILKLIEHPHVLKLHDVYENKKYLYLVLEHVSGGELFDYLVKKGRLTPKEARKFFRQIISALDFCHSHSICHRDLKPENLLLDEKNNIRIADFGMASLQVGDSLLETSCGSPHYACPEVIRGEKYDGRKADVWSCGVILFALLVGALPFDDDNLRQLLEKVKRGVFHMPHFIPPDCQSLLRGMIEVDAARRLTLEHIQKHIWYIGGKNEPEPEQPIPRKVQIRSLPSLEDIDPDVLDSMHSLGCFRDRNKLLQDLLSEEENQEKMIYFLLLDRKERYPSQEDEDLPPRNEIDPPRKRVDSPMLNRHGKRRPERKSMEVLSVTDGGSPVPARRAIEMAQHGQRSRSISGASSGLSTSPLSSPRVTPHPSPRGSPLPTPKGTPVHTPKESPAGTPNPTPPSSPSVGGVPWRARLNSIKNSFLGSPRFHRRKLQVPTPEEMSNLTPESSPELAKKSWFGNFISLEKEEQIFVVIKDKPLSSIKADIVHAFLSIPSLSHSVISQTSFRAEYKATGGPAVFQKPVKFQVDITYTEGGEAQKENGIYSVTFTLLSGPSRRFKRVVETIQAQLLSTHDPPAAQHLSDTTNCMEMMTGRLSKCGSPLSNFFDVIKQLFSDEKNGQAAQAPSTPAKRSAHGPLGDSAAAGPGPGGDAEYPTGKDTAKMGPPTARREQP
# BaF3 = assay: Antiproliferative activity against mouse BaF3 cells expressing TEL-fused BMX assessed growth inhibition incubated for 2 to 5 days by CellTiter-Glo assay; type: functional, cell-based
# [22] = target: Tyrosine-protein kinase Mer (Homo sapiens) (UniProt Q12866); assay: Inhibition of MERTK (unknown origin) assessed as remaining activity at 1 uM by Kinome scan method relative to control
# [23] = target: Peripheral plasma membrane protein CASK (Homo sapiens) (UniProt O14936); assay: Inhibition of CASK (unknown origin) assessed as remaining activity at 1 uM by Kinome scan method relative to control
# [24] = target: MAP/microtubule affinity-regulating kinase 4 (Homo sapiens) (UniProt Q96L34); assay: Inhibition of MARK4 (unknown origin) assessed as remaining activity at 1 uM by Kinome scan method relative to control
# [25] = target: Insulin receptor (Homo sapiens) (UniProt P06213); assay: Inhibition of INSR (unknown origin) assessed as remaining activity at 1 uM by Kinome scan method relative to control
# Chain of Insulin receptor (Homo sapiens) (P06213 28-758 limits assumed): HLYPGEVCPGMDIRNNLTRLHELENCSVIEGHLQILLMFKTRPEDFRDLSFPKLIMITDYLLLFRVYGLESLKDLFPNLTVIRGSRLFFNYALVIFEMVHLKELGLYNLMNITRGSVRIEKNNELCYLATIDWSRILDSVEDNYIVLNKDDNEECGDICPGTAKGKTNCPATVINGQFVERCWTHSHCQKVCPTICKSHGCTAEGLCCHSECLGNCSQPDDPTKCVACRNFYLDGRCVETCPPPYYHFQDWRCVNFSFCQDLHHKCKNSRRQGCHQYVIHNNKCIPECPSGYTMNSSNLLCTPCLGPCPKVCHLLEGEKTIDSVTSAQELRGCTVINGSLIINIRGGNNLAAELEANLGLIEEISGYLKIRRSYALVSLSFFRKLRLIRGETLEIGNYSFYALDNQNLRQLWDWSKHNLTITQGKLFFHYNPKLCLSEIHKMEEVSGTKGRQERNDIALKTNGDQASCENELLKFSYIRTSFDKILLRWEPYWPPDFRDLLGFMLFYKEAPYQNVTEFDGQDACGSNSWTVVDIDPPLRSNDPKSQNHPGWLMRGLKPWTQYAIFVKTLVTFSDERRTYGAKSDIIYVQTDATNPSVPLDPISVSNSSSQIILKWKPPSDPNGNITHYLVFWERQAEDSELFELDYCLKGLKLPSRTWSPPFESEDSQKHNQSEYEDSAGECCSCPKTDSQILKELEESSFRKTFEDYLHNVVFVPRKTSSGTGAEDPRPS
# Chain of Insulin receptor (Homo sapiens) (P06213 763-1382 limits assumed): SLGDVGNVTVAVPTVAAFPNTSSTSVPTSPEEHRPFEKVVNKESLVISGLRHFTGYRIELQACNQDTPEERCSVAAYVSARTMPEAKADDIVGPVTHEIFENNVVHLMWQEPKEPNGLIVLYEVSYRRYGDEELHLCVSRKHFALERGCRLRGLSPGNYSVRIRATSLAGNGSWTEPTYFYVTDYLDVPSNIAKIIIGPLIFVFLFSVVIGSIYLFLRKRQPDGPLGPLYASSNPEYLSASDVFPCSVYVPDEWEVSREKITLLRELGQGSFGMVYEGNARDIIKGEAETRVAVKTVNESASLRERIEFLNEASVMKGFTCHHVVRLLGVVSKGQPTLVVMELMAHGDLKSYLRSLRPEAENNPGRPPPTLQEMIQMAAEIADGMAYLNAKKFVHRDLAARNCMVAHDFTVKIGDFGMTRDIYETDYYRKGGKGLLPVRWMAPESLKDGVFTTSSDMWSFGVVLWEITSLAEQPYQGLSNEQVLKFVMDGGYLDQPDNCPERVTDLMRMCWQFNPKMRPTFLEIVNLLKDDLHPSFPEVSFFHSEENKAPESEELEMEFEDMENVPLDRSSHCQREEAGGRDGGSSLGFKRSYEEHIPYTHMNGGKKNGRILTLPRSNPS
# [26] = target: Ribosomal protein S6 kinase alpha-1 (Homo sapiens) (UniProt Q15418); assay: Inhibition of C-terminal kinase domain RSK1 (unknown origin) assessed as remaining activity at 1 uM by Kinome scan method relative to control
# [27] = target: Tyrosine-protein kinase TXK (Homo sapiens) (UniProt P42681); assay: Inhibition of TXK (unknown origin) assessed as remaining activity at 1 uM by Kinome scan method relative to control
# Chain of Tyrosine-protein kinase TXK (Homo sapiens) (P42681 whole entry, canonical isoform): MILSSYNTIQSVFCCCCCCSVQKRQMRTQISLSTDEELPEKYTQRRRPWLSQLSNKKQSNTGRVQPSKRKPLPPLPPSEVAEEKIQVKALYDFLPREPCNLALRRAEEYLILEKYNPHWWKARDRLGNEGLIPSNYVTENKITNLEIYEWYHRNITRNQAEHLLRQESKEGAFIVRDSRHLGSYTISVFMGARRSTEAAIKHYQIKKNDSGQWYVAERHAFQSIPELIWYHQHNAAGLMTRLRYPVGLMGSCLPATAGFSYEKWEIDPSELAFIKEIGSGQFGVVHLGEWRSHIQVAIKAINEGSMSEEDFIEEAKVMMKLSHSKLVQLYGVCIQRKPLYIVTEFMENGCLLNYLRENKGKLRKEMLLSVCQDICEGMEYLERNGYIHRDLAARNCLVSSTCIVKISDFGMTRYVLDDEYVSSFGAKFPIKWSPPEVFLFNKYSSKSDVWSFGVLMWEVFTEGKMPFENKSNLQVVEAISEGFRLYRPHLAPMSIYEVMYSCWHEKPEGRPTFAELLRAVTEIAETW
# [28] = target: Phosphatidylinositol 4,5-bisphosphate 3-kinase catalytic subunit gamma isoform (Homo sapiens) (UniProt P48736); assay: Inhibition of PIK3CG (unknown origin) assessed as remaining activity at 1 uM by Kinome scan method relative to control
# Chain of Phosphatidylinositol 4,5-bisphosphate 3-kinase catalytic subunit gamma isoform (Homo sapiens) (P48736 whole entry, looked up, canonical isoform): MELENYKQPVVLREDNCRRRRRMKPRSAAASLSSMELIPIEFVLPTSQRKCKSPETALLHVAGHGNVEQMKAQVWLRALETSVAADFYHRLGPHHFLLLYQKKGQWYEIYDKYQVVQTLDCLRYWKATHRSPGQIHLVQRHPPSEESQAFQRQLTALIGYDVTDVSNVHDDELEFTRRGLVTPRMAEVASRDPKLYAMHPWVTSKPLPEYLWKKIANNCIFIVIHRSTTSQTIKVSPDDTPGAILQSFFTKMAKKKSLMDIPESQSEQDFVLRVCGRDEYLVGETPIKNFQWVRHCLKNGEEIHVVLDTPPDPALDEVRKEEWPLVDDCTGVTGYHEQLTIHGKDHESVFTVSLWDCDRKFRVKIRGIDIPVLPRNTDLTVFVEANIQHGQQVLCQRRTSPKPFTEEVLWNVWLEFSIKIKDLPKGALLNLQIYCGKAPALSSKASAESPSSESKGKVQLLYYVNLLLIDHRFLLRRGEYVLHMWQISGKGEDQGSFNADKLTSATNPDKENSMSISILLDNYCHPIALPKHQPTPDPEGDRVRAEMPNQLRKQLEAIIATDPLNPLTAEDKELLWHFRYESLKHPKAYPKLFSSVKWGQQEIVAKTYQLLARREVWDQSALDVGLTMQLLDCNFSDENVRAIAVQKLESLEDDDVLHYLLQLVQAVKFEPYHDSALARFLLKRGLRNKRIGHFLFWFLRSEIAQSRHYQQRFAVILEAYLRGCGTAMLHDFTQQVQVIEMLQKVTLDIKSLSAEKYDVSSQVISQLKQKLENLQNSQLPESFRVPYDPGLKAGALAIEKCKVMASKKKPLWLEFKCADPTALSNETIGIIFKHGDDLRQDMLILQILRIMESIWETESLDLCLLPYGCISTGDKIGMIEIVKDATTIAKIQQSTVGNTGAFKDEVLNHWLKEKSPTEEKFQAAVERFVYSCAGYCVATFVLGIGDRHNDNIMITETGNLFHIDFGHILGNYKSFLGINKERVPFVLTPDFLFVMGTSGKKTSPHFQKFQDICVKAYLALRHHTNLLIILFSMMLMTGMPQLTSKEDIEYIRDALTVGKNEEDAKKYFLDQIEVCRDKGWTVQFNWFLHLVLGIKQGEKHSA
# [29] = test system: Mast/stem cell growth factor receptor Kit (Homo sapiens), P10721 [A829P]; assay: Inhibition of KIT A829P mutant (unknown origin) assessed as remaining activity at 1 uM by Kinome scan method relative to control
smiles,measurement,setting,value
C=CC(=O)Nc1cc(-n2c(=O)ccc3cnc4ccc(-c5ccc(NS(C)(=O)=O)cc5)cc4c32)ccc1C,inhibition,[1],inactive
same,Activity,[2],96%
same,GI50,VCaP,2.46 µM
same,Activity,[3],75%
same,Activity,[4],70%
same,Activity,[5],9.1%
same,Activity,[6],76%
same,inhibition,[7],inactive
same,Activity,[8],69%
same,Activity,[9],92%
same,Activity,[10],88%
same,Activity,[11],91%
same,Activity,[12],92%
same,Activity,[13],0.32
same,Activity,RV-1,Active
same,Activity,[14],87%
same,Activity,[15],87%
same,Activity,[16],81%
same,Activity,[17],99%
same,Activity,[18],83%
same,Activity,[19],62%
same,Activity,[20],94%
same,Activity,[21],84%
same,IC50,BaF3,0.569 µM
same,GI50,BaF3; time 2-5 day,0.025 µM
same,Activity,[22],72%
same,Activity,[23],61%
same,Activity,[24],80%
same,Activity,[25],93%
same,Activity,[26],91%
same,Activity,[27],25%
same,Activity,[28],2.8%
same,Activity,[29],74%
